In patent publication US10898473B2, “Combinations to treat cancer” (EVOL SCIENCE LLC, priority 2016, dated 2021):

How the values were obtained:
BxPC3M1 cells = assay: Colony formation assay; type: cell-based
Method: (§1) For colony formation assays, 400 cells per well were seeded into 24-well plates on day 0. Cells were treated with DMSO or gemcitabine at various doses on day 1 for 24 hours. Gemcitabine was washed out on day 2, vemurafenib, dabrafenib, and methotrexate was added. On day 4, drugs added on day 2 was washed out. Cells were allowed to grow for a subsequent 7 days before being fixed (10% methanol+10% acetic acid) and stained with crystal violet (0.4% in 20% ethanol) for quantitation as previously described (Bhattacharjee et al., 2014).

NCI-H2122 cells = assay: Colony formation assay; type: cell-based
Method: as §1

[1] = system: pancreatic cancer patient-derived and ATCC established cell lines; assay: 3D-spheroidal growth assay (CTG3D cell viability); type: cell-based; conditions: gemcitabine day 2, washed out, B-raf inhibitor day 3, viability day 5; FIG. 15
Method: FIG. 15 illustrates gemcitabine sensitized pancreatic cancer patient-derived and ATCC established cell lines to vemurafenib or dabrafenib in 3D-spheroidal growth assays: 20,000 cells plated (Corning 4515 spheroid plates) on day 0, Gemcitabine added on day 2 (all spheroids at least 500 μm in diameter), gemcitabine washed out and B-raf inhibit was added on day 3, CTG3D cell viability assays on day 5 (n=2).
ATCC established cell lines to vemurafenib or dabrafenib in 3D-spheroidal growth assays. 20,000 cells were plated to grow in a 3D-spheroidal growth assays. (Corning 4515 spheroid plates). Two days later when all spheroids were at least 500 μm in diameter, gemcitabine was added 2 days after plating. Gemcitabine was washed out the following day and the B-raf inhibitor was added on day 3 (3 days post-plating). CTG3D cell viability assays were performed 5-days post plating (i.e, on day 5, n=2). […] This was a surprising and unexpected effect that these cells could be killed with this combination.

SK-MEL-28 cells [2] = assay: Colony formation assay; type: cell-based
Method: as §1

SK-MEL-28VR1 cells [3] = assay: Colony formation assay; type: cell-based
Method: as §1

SK-MEL-28 cells [4] = assay: Mass spectrometry protein abundance
Method: (§2) 5 μL of sample were loaded onto a C18 trap column (PepMap100; 300-μm i.d.×5 mm, 5-μm particle size, 100 Å; Thermo Fisher Scientific) at a flow rate of 10 μL min^−1. […] The runs were analyzed using Progenesis-QI for Proteomics (Nonlinear dynamics). The chromatograms were aligned and the MS/MS data was extracted for peptide identification using Mascot (Matrix Science, London, UK; version 2.5.1). Mascot was set up to search the cRAP database, the custom database including the QMC peptide sequence and SwissProt database (selected for Homo sapiens) assuming the digestion enzyme trypsin. Mascot was searched with a fragment ion mass tolerance of 0.06 Da and a parent ion tolerance of 15 PPM. Deamidated of asparagine and glutamine, oxidation of methionine, acetyl of lysine, propionyl of lysine and carbamidomethylation of cysteine were specified in Mascot as variable modifications. The peptides identified using a FDR<1% were extracted and imported back into Progenesis for assignment of the peaks. Only proteins with at least 2 unique peptides and a Mascot score of 20 were used for further analysis. The peptide and protein quantification used a synthetic control peptide for normalization across the samples.
(§3) All proteomic trend plots were constructed using the Evol Science Software suite (ESSv1.0). […]

SK-MEL-28VR1 cells [5] = assay: Mass spectrometry protein abundance
Method: as §2, §3

[6] = system: PHGDH in SK-MEL-28VR1 cells; assay: Western blot of PHGDH protein expression; type: cell-based; conditions: following vemurafenib treatment; FIG. 5B
Method: Cells were harvested, washed in PBS and lysed in NP40 lysis buffer (1% NP40/PBS/10% glycerol) with protease and phosphatase inhibitors. Protein concentrations were determined with Total-Protein-Assay-kit (ITSI Biosciences; K-0014-20) and then SDS sample buffer was added to the lysates. 50 ug of boiled lysates was separated by SDS-PAGE and then transferred onto Immobilon P membranes (Millipore; IPVH00010).

[7] = system: SK-MEL-28VR1 vs SK-MEL-28 cells; conditions: protein abundance with vemurafenib treatment, SK-MEL-28VR1 compared to parental SK-MEL-28
[8] = system: BxPC3M1, BxPC3, Panc1, and MiaPaca2; type: cell-based, Homo sapiens; conditions: vemurafenib 10 μM vs DMSO; all 4 cell lines
[9] = system: BxPC3M1, BxPC3, Panc1, and MiaPaca2; assay: Cell proliferation assay; type: cell-based; conditions: vemurafenib 10 μM; all 4 cell lines (WT BRAF)
Method: FIGS. 9A-9H illustrate vemurafenib induced cell proliferation and serine synthesis in pancreatic cancer cell lines. FIG. 9A: Cell proliferation assay of BxPC3 cells treated with vemurafenib (10 μM). 100000 cells plated on day 0. FIG. 9B: Cell proliferation assay of BxPC3M1 cells treated with vemurafenib (10 μM). 100000 cells plated on day 0. FIG. 9C: Cell proliferation assay of Panc1 cells treated with vemurafenib (10 μM). 100000 cells plated on day 0. FIG. 9D: Cell proliferation assay of MiaPaca2 cells treated with vemurafenib (10 μM). 100000 cells plated on day 0. FIG. 9E: Mass spectrometry: PHGDH protein expression in pancreatic cancer cells treated with DMSO or vemurafenib (10 μM) (n=3). FIG. 9F: Mass spectrometry: PSAT1 protein expression in pancreatic cancer cells treated with DMSO or vemurafenib (10 μM) (n=3). FIG. 9G: Mass spectrometry: PSPH protein expression in pancreatic cancer cells treated with DMSO or vemurafenib (10 μM) (n=3). FIG. 9H: Mass spectrometry: SARS protein expression in pancreatic cancer cells treated with DMSO or vemurafenib (10 μM) (n=3).
Next, we tested the effect of vemurafenib treatment on pancreatic cancer cell proliferation. All 4 of the cell lines (BxPC3M1, BxPC3, Panc1, and MiaPaca2) tested express WT BRAF. […] As expected, PHGDH, PSAT1, PSPH, and SARS protein abundance increased in all 4 cell lines tested (FIGS. 9E, 9F, 9G, and 9H). […]

## CC(C)(C)c1nc(-c2cccc(NS(=O)(=O)c3c(F)cccc3F)c2F)c(-c2ccnc(N)n2)s1 [dabrafenib, Dabrafenib]
BxPC3M1 cells; dabrafenib 1 μM + variable doses of gemcitabine, FIG. 11A
  sensitization to gemcitabine: sensitized
NCI-H2122 cells; dabrafenib 1 μM + variable doses of gemcitabine, FIG. 11B
  sensitization to gemcitabine: sensitized

## Nc1ccn([C@@H]2O[C@H](CO)[C@@H](O)C2(F)F)c(=O)n1 [gemcitabine]
[1]
  effect of gemcitabine pre-treatment followed by B-raf inhibitors on the cells: leads to cell death
  sensitization to vemurafenib or dabrafenib: sensitized
SK-MEL-28 cells [2]; gemcitabine 50 nM + variable doses of vemurafenib, FIG. 7A
  sensitization over single vemurafenib treatments: did not sensitize
SK-MEL-28VR1 cells [3]; gemcitabine 50 nM + variable doses of vemurafenib, FIG. 7B
  sensitization to vemurafenib: significantly sensitized
SK-MEL-28VR1 cells [3]; gemcitabine 50 nm + variable doses of dabrafenib, FIG. 11C
  sensitization to dabrafenib: sensitized

## CN(Cc1cnc2nc(N)nc(N)c2n1)c1ccc(C(=O)N[C@@H](CCC(=O)O)C(=O)O)cc1 [methotrexate]
SK-MEL-28 cells [2]; methotrexate 75 nM + differential doses of vemurafenib, FIG. 6C
  killing by methotrexate/vemurafenib treatments: no significant killing
BxPC3M1 cells; methotrexate (75 nM) + gemcitabine + vemurafenib (1 μM), FIG. 10A
  cell death compared to gemcitabine+vemurafenib without methotrexate: increased cell death
SK-MEL-28VR1 cells [3]; methotrexate 75 nM + differential doses of vemurafenib, FIG. 6D
  killing of cells following vemurafenib treatment: significantly enhanced
SK-MEL-28VR1 cells [3]; methotrexate (75 nM) + gemcitabine (50 nM) + vemurafenib, FIG. 7F
  cell death alongside the gemcitabine/vemurafenib combination: significantly enhanced
NCI-H2122 cells; methotrexate (75 nM) + gemcitabine + vemurafenib (1 μM), FIG. 10B
  cell death compared to gemcitabine+vemurafenib without methotrexate: increased cell death

## CCCS(=O)(=O)Nc1ccc(F)c(C(=O)c2c[nH]c3ncc(-c4ccc(Cl)cc4)cc23)c1F [vemurafenib, Vemurafenib]
SK-MEL-28 cells [4]; in response to vemurafenib treatments, parental cells
  FAM129B abundance: decreased
SK-MEL-28 cells [4]; parental cells exposed to vemurafenib vs vehicle, data not shown
  PHGDH, PSAT1, PSPH, SARS and SARS2 abundance: opposite trend
SK-MEL-28VR1 cells [5]; cells exposed to vemurafenib vs vehicle, data not shown
  PHGDH, PSAT1, PSPH, SARS and SARS2 abundance: equal or higher abundances
SK-MEL-28VR1 cells [5]; vemurafenib treatment compared to vehicle treatment, FIG. 5A
  Cytoplasmic FAM129B abundance increase: ~6 fold
[6]
  PHGDH levels: increased
[7]
  Fold differential, ASNS: 8 fold
  Fold differential, CYP51A1: 8 fold
  Fold differential, DUS2: 7 fold
  Fold differential, FAM129B: 9 fold
  Fold differential, KRT19: 5 fold
  Fold differential, LARS2: 6 fold
  Fold differential, MPHOSPH6: 9 fold
  Fold differential, MRPL13: 2 fold
  Fold differential, PDLIM7: 9 fold
  Fold differential, PHGDH: 2 fold
  Fold differential, PPP1R7: 8 fold
  Fold differential, PSAT1: 8 fold
  Fold differential, PSPH: 5 fold
  Fold differential, RUVBL1: 3 fold
  Fold differential, S100A11: 8 fold
  Fold differential, SARS: 6 fold
  Fold differential, SARS2: 4 fold
  Fold differential, SBDS: 10 fold
  Fold differential, SPATA20: 12 fold
  Fold differential, TXNDC17: 2 fold
BxPC3M1 cells; variable gemcitabine doses + vemurafenib 1 μM, FIG. 8A
  sensitization to gemcitabine: significantly sensitized
BxPC3M1 cells; vemurafenib 5 μM, serine depleted media (not with complete media), FIG. 10C
  cell death: > 50%
SK-MEL-28VR1 cells [3]; vemurafenib 2.5 μM and 5 μM, serine depletion (not with complete media), FIG. 6E
  cell death: > 50%
NCI-H2122 cells; vemurafenib 1 μM, FIG. 8C
  sensitization to gemcitabine: sensitized
[8]
  PHGDH, PSAT1, PSPH, and SARS protein abundance: increased
[9]
  cell proliferation: increased proliferation
